System: human (tumor) Hif2α (EPAS1) mRNA
Test: Hif2α knockdown in orthotopic RCC tumor bearing mice, single injection of RNAi trigger-delivery polymer conjugate, RT-qPCR (Table 7)
Format: in vivo
Conditions: single tail vein injection, relative to isotonic glucose
Outline: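 A single intravenous dose of Hif2α RNAi trigger–delivery polymer conjugate, or isotonic glucose vehicle, was given to nude mice with subcapsular A498-SEAP renal tumours (about 5–6 weeks old). At the indicated time, tumour RNA was assayed by biplex TaqMan qPCR against CycA, and relative expression was calculated by ΔΔCT versus vehicle.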

[1] = RNAi trigger 80 μg, polymer 126 400 μg
[2] = RNAi trigger 50 μg, polymer 064 125 μg

Row | Substance | Relative Expression day 4 (Hif2α mRNA in kidney tumor) [1] | Relative Expression day 4 (Hif2α mRNA in kidney tumor) [2] | other results
1 | AD01258 (antisense TUUCAUGAAAUCGUUACGUTT; sense ACGUAACGAUUUCAUGAAAT; Hif2alpha RNAi agent antisense strand; modified_base 2,4,6,8,10,12,14,16,18 /mod_base = “2′-deoxy-2′-fluoro corresponding nucleoside”; modified_base 3,5,7,9,11,13,17,19 /mod_base = “2′-O-methyl corresponding nucleoside”; modified_base 15 /mod_base = “2′-3′ seco corresponding nucleotide”; modified_base 21 /mod_base = “5′-phosphorothioate corresponding nucleotide”; Hif2alpha RNAi agent sense strand; modified_base 1,3,5,7,9,11,13,15,17,19 /mod_base = “2′-deoxy-2′-fluoro corresponding nucleoside”; modified_base 2,4,6,8,10,12,14,16,18 /mod_base = “2′-O-methyl corresponding nucleoside”; modified_b) | 0.38 |  | 
2 | AD03011 (antisense UUUCAUGAAAUCGUUACGUUG; sense UAUACGUAACGAUUUCAUGAAAT; Hif2alpha RNAi agent antisense strand; modified_base 2,4,6,8,10,14,16,18 /mod_base = “2′-deoxy-2′-fluoro corresponding nucleoside”; modified_base 1,3,5,7,9,11,12,13,15,17,19,20,21 /mod_base = “2′-O-methyl corresponding nucleoside”; modified_base 2,3,20,21 /mod_base = “5′-phosphorothioate corresponding nucleotide”; Hif2alpha RNAi agent sense strand; modified_base 2 modified base = “2′-hydroxy corresponding nucleoside”; modified_base 10,12,16 /mod_base = “2′-deoxy-2′-fluoro corresponding nucleoside”; modified_base 1,3,4,5,6,7,8,9,11,13,14,15,17,18,19,20,21,22 /mod_base = “2′-O-methyl correspon) |  | 0.183 | 
3 | AD03190 (antisense AGUAAAACAAUUGUGUACUUUAA; sense AAAGUACACAAUUGUUUUACT; Hif2alpha RNAi agent antisense strand; modified_base 2,4,6,8,10,14,16,18 /mod_base = “2′-deoxy-2′-fluoro corresponding nucleoside”; modified_base 1,3,5,7,9,11,12,13,15,17,19,20,21,22,23 /mod_base = “2′-O-methyl corresponding nucleoside”; modified_base 2,3,22,23 /mod_base = “5′-phosphorothioate corresponding nucleotide”; Hif2alpha RNAi agent sense strand; modified_base 3,5,7,9,10,11,13,15,19 /mod_base = “2′-deoxy-2′-fluoro corresponding nucleoside”; modified_base 1,2,4,6,8,12,14,16,17,18,20 /mod_base = “2′-O-methyl corresponding nucleoside”; modified_base 21 /mod_base = “3′-3′-linked nucleoti) |  | 0.269 | 
4 | AD01292 (antisense TUUCAUGAAAUCGUUACGUUGGC; sense CAACGUAACGAUUUCAUGAAA; Hif2alpha RNAi agent antisense strand; modified_base 2,4,6,8,10,14,16,18,20 /mod_base = “2′-deoxy-2′-fluoro corresponding nucleoside”; modified_base 3,5,7,9,11,12,13,15,17,19,21,22,23 /mod_base = “2′-O-methyl corresponding nucleoside”; modified_base 2,3,22,23 /mod_base = “5′-phosphorothioate corresponding nucleotide”; Hif2alpha RNAi agent sense strand; modified_base 3,5,7,9,10,11,13,15,17,19,21 /mod_base = “2′-deoxy-2′-fluoro corresponding nucleoside”; modified_base 2,4,6,8,12,14,16,18,20 /mod_base = “2′-O-methyl corresponding nucleoside”; modified_base 1 /mod_base = “2′-3′ seco correspondin) | 0.27 |  | 
5 | AD02733 (antisense UUUCAUGAAAUCGUUACGUUG; sense ACGUAACGAUUUCAUGAAAT; Hif2alpha RNAi agent antisense strand; modified_base 2,4,6,8,10 /mod_base = “2′-deoxy-2′-fluoro corresponding nucleoside”; modified_base 1,3,5,7,9,11,12,13,14,15,16,17,18,19,20,21 /mod_base = “2′-O-methyl corresponding nucleoside”; modified_base 2,3,20,21 /mod_base = “5′-phosphorothioate corresponding nucleotide”; Hif2alpha RNAi agent sense strand; modified_base 7,9 /mod_base = “2′-deoxy-2′-fluoro corresponding nucleoside”; modified_base 1,2,3,4,5,6,8,10,11,12,13,14,15,16,17,18,19 /mod_base = “2′-O-methyl corresponding nucleoside”; modified_base 20 /mod_base = “3′-3′-linked nucleotide”; modi) |  |  | Relative Expression day 4 (Hif2α mRNA in kidney tumor) (RNAi trigger 75 μg, polymer 064 187.5 μg): 0.283
6 | AD03256 (antisense AUUCAUGAAAUCGUUACGUUGAT; sense AACGUAACGAUUUCAUGAAUT; Hif2alpha RNAi agent antisense strand; modified_base 2,4,6,8,14 /mod_base = “2′-deoxy-2′-fluoro corresponding nucleoside”; modified_base 1,3,5,7,9,10,11,12,13,15,16,17,18,19,20,21,22 /mod_base = “2′-O-methyl corresponding nucleoside”; modified_base 23 /mod_base = “3′-3′-linked nucleotide”; modified_base 2,3,22,23 /mod_base = “5′-phosphorothioate corresponding nucleotide”; Hif2alpha RNAi agent sense strand; modified_base 8,9,10 /mod_base = “2′-deoxy-2′-fluoro corresponding nucleoside”; modified_base 1,2,3,4,5,6,7,11,12,13,14,15,16,17,18,19,20 /mod_base = “2′-O-methyl corresponding nucleoside”) |  | 0.333 | 

From patent publication US9976141B2, “Compositions and methods for inhibiting gene expression of Hif2alpha” (Arrowhead Madison Inc., priority 2015, dated 2018)
